Key:
Experiment in all cases: RBC kinase panel
Format in all cases: biochemical
Conditions in all cases: ATP 10 μM, Data1, Data2
BLK = target: T1, BLK (Homo sapiens, UniProt P51451)
T1 construct: purchased Reaction Biology Corporation
Method in brief: (§1)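 Each of the 369 panel kinases (human) received the compound at 1 μM; reactions used 10 μM ATP and were set up in duplicate.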

BMX/ETK = target: T2, BMX/ETK (Homo sapiens, UniProt P51813)
T2 construct: purchased Reaction Biology Corporation
Method in brief: as §1

BRK = target: T3, BRK (Homo sapiens, UniProt Q13882)
T3 construct: purchased Reaction Biology Corporation
Method in brief: as §1

CAMK1d = target: T4, CAMK1d (Homo sapiens, UniProt Q8IU85)
T4 construct: purchased Reaction Biology Corporation
Method in brief: as §1

CDK2/cyclin A = target: T5, CDK2/cyclin A (Homo sapiens, UniProt P24941)
T5 construct: purchased Reaction Biology Corporation
Method in brief: as §1

CK1g1 = target: T6, CK1g1 (Homo sapiens, UniProt Q9HCP0)
T6 construct: purchased Reaction Biology Corporation
Method in brief: as §1

CK1g3 = target: T7, CK1g3 (Homo sapiens, UniProt Q9Y6M4)
T7 construct: purchased Reaction Biology Corporation
Method in brief: as §1

DAPK2 = target: T8, DAPK2 (Homo sapiens, UniProt Q9UIK4)
T8 construct: purchased Reaction Biology Corporation
Method in brief: as §1

DYRK1B = target: T9, DYRK1B (Homo sapiens, UniProt Q9Y463)
T9 construct: purchased Reaction Biology Corporation
Method in brief: as §1

EPHA2 = target: T10, EPHA2 (Homo sapiens, UniProt P29317)
T10 construct: purchased Reaction Biology Corporation
Method in brief: as §1

EPHA3 = target: T11, EPHA3 (Homo sapiens, UniProt P29320)
T11 construct: purchased Reaction Biology Corporation
Method in brief: as §1

EPHB4 = target: T12, EPHB4 (Homo sapiens, UniProt P54760)
T12 construct: purchased Reaction Biology Corporation
Method in brief: as §1

FGFR3 = target: T13, FGFR3 (Homo sapiens, UniProt P22607)
T13 construct: purchased Reaction Biology Corporation
Method in brief: as §1

GCK/MAP4K2 = target: T14, GCK/MAP4K2 (Homo sapiens, UniProt Q12851)
T14 construct: purchased Reaction Biology Corporation
Method in brief: as §1

HGK/MAP4K4 = target: T15, HGK/MAP4K4 (Homo sapiens, UniProt O95819)
T15 construct: purchased Reaction Biology Corporation
Method in brief: as §1

Haspin = target: T16, Haspin (Homo sapiens, UniProt Q8TF76)
T16 construct: purchased Reaction Biology Corporation
Method in brief: as §1

JAK1 = target: T17, JAK1 (Homo sapiens, UniProt P23458)
T17 construct: purchased Reaction Biology Corporation
Method in brief: as §1

LATS2 = target: T18, LATS2 (Homo sapiens, UniProt Q9NRM7)
T18 construct: purchased Reaction Biology Corporation
Method in brief: as §1

MLCK2/MYLK2 = target: T19, MLCK2/MYLK2 (Homo sapiens, UniProt Q9H1R3)
T19 construct: purchased Reaction Biology Corporation
Method in brief: as §1

MST3/STK24 = target: T20, MST3/STK24 (Homo sapiens, UniProt Q9Y6E0)
T20 construct: purchased Reaction Biology Corporation
Method in brief: as §1

MYLK3 = target: T21, MYLK3 (Homo sapiens, UniProt Q32MK0)
T21 construct: purchased Reaction Biology Corporation
Method in brief: as §1

NEK1 = target: T22, NEK1 (Homo sapiens, UniProt Q96PY6)
T22 construct: purchased Reaction Biology Corporation
Method in brief: as §1

P38g = target: T23, P38g (Homo sapiens, UniProt P53778)
T23 construct: purchased Reaction Biology Corporation
Method in brief: as §1

PKCb1 = target: T24, PKCb1 (Homo sapiens, UniProt P05771)
T24 construct: purchased Reaction Biology Corporation
Method in brief: as §1

PKCb2 = target: T25, PKCb2 (Homo sapiens, UniProt P05771)
T25 construct: purchased Reaction Biology Corporation
Method in brief: as §1

PKCiota = target: T26, PKCiota (Homo sapiens, UniProt P41743)
T26 construct: purchased Reaction Biology Corporation
Method in brief: as §1

PKCnu/PRKD3 = target: T27, PKCnu/PRKD3 (Homo sapiens, UniProt O94806)
T27 construct: purchased Reaction Biology Corporation
Method in brief: as §1

RIPK3 = target: T28, RIPK3 (Homo sapiens, UniProt Q9Y572)
T28 construct: purchased Reaction Biology Corporation
Method in brief: as §1

RSK4 = target: T29, RSK4 (Homo sapiens, UniProt Q9UK32)
T29 construct: purchased Reaction Biology Corporation
Method in brief: as §1

SIK2 = target: T30, SIK2 (Homo sapiens, UniProt Q9H0K1)
T30 construct: purchased Reaction Biology Corporation
Method in brief: as §1

SRPK1 = target: T31, SRPK1 (Homo sapiens, UniProt Q96SB4)
T31 construct: purchased Reaction Biology Corporation
Method in brief: as §1

TTBK1 = target: T32, TTBK1 (Homo sapiens, UniProt Q5TCY1)
T32 construct: purchased Reaction Biology Corporation
Method in brief: as §1

TYRO3/SKY = target: T33, TYRO3/SKY (Homo sapiens, UniProt Q06418)
T33 construct: purchased Reaction Biology Corporation
Method in brief: as §1

T9 sequence (Q9Y463 whole entry): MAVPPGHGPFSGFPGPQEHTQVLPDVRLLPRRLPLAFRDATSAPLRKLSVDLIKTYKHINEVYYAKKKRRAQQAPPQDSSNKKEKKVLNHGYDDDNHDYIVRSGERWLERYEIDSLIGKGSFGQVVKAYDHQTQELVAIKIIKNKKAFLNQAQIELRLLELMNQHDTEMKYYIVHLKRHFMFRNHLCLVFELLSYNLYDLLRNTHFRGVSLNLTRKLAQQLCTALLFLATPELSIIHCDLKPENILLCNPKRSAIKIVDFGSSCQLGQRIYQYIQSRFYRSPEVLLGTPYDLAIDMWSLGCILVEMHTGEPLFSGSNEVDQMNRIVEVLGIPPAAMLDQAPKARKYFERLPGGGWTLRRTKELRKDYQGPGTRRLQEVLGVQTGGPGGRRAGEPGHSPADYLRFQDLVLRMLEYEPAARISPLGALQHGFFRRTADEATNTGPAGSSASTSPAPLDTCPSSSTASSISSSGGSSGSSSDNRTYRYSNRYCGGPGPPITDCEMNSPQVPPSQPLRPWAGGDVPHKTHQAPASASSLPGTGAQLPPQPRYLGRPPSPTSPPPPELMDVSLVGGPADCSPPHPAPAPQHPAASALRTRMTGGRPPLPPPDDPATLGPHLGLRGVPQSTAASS
T13 sequence (P22607 23-806): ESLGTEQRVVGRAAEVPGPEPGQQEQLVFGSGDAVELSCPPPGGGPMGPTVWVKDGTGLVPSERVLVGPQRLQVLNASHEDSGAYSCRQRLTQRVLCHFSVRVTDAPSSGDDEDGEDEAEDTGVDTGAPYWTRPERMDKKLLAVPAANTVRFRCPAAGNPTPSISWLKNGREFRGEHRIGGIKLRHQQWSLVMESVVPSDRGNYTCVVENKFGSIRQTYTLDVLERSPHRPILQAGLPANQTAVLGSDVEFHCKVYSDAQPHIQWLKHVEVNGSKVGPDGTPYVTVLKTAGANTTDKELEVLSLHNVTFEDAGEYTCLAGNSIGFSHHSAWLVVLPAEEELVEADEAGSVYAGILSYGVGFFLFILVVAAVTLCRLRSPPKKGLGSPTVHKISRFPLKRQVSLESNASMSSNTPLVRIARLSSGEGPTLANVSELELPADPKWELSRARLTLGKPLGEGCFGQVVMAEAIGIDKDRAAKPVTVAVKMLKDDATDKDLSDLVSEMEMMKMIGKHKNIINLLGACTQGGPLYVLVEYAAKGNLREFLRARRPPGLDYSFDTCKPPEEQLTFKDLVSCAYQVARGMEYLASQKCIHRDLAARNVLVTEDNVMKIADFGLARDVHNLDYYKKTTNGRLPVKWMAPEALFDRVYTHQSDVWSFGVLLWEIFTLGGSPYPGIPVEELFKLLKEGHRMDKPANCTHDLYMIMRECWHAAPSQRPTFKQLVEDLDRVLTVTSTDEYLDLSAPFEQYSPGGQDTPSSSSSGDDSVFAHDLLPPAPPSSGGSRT
T10 sequence (P29317 24-976): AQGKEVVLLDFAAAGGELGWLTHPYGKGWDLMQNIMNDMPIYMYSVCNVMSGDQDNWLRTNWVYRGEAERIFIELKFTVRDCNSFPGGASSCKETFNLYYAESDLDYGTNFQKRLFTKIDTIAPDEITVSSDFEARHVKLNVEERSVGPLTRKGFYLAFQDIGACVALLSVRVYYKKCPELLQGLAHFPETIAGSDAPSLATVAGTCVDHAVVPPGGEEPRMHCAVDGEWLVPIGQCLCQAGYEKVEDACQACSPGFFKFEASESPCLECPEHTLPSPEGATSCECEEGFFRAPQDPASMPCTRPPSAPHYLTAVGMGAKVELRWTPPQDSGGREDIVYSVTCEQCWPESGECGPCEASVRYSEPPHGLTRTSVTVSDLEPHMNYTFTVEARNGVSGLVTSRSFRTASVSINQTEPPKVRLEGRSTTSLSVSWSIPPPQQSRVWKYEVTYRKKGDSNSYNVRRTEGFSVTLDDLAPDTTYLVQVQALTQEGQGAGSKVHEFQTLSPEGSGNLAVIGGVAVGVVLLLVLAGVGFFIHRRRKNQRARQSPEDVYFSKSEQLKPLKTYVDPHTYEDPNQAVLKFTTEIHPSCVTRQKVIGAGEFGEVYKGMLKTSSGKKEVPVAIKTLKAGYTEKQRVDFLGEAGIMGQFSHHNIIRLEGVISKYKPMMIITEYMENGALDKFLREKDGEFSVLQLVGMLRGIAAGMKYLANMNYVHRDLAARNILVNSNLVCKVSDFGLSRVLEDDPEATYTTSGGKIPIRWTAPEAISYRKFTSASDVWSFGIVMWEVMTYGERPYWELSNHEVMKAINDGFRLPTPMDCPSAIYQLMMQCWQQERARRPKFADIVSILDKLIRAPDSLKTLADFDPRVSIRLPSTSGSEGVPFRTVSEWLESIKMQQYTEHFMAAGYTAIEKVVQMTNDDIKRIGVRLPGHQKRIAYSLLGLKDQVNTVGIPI
T3 sequence (Q13882 whole entry): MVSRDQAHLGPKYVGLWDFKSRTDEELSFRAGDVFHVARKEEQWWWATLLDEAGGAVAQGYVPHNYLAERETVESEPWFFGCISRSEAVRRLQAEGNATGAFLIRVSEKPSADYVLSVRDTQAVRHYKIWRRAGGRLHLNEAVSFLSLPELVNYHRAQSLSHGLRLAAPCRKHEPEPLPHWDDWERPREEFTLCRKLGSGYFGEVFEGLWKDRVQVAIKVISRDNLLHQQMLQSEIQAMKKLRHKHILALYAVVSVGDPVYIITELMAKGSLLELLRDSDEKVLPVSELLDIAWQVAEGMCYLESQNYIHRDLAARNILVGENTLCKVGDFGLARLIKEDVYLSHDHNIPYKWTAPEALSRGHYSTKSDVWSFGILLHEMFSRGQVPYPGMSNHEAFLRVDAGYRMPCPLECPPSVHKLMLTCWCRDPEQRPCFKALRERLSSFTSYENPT
T27 sequence (O94806 whole entry): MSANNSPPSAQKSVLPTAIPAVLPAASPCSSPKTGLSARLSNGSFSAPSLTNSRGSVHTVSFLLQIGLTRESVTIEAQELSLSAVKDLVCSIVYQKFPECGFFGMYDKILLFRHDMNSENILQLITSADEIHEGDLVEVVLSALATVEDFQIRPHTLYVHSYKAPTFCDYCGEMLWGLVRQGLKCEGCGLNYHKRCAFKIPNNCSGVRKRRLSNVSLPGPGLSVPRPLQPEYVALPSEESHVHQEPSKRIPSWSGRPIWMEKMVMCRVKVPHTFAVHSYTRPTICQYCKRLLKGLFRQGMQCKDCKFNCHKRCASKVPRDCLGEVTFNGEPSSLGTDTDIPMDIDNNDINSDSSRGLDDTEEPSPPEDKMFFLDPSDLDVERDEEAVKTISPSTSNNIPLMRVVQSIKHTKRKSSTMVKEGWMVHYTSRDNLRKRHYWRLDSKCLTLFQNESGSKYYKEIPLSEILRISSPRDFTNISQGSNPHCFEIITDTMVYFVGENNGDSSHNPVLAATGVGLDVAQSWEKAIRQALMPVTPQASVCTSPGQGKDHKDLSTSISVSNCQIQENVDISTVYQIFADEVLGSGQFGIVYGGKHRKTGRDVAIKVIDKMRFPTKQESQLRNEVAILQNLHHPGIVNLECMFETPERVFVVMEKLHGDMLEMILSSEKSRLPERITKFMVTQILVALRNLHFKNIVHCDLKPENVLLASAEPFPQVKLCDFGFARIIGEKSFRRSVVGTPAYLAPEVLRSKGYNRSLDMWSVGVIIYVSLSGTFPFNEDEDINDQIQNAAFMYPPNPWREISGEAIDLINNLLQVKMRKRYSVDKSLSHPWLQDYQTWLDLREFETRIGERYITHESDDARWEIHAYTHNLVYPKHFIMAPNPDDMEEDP
T4 sequence (Q8IU85 whole entry): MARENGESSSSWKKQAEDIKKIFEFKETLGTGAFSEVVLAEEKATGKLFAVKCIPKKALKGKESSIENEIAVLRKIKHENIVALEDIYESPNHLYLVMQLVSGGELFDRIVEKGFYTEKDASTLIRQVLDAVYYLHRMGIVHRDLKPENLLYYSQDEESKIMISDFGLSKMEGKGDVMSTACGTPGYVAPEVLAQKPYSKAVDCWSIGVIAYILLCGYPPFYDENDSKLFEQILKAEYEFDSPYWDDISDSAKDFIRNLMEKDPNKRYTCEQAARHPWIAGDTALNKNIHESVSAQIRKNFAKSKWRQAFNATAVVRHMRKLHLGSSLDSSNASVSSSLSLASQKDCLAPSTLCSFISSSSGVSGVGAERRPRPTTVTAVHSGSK
T31 sequence (Q96SB4 whole entry): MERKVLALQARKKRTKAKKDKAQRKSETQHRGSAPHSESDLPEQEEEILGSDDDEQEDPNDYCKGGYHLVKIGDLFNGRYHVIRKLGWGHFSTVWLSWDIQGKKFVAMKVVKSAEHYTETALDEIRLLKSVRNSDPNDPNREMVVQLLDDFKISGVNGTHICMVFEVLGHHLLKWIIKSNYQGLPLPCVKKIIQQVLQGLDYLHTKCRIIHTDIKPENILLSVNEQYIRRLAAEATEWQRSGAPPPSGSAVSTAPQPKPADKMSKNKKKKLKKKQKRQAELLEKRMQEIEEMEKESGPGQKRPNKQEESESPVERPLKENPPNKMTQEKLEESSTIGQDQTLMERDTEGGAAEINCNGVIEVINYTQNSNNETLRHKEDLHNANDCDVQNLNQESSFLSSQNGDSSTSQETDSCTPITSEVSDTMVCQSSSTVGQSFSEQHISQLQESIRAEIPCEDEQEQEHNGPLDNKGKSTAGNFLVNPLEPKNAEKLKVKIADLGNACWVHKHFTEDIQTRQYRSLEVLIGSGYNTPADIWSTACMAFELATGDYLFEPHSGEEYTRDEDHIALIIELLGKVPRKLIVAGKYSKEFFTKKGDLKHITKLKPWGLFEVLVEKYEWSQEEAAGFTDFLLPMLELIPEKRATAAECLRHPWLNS

## CC(=O)Nc1nc2ccc(-c3cnc(C)c(NC(=O)OC4CCCCC4)c3)cc2s1 [PK68, cyclohexyl (5-(2-acetamidobenzo[d]thiazol-6-yl)-2-methylpyridin-3-yl)carbamate]
BLK; 1 μM
  Activity%: 93.58%
BLK
  activity at 1 µM: 95.4%
BMX/ETK; 1 μM
  Activity%: 99.71%
BMX/ETK
  activity at 1 µM: 99.9%
BRK; 1 μM
  Activity%: 96.14%
BRK
  activity at 1 µM: 97.5%
CAMK1d; 1 μM
  Activity%: 100.76%
CAMK1d
  activity at 1 µM: 103%
CDK2/cyclin A; 1 μM
  Activity%: 97.94%
CDK2/cyclin A
  activity at 1 µM: 98.5%
CK1g1; 1 μM
  Activity%: 89.50%
CK1g1
  activity at 1 µM: 90.7%
CK1g3; 1 μM
  Activity%: 87.02%
CK1g3
  activity at 1 µM: 87.1%
DAPK2; 1 μM
  Activity%: 107.36%
DAPK2
  activity at 1 µM: 109%
DYRK1B; 1 μM
  Activity%: 97.55%
DYRK1B
  activity at 1 µM: 99.4%
EPHA2; 1 μM
  Activity%: 94.92%
EPHA2
  activity at 1 µM: 95.2%
EPHA3; 1 μM
  Activity%: 98.26%
EPHA3
  activity at 1 µM: 102%
EPHB4; 1 μM
  Activity%: 99.18%
EPHB4
  activity at 1 µM: 101%
FGFR3; 1 μM
  Activity%: 90.12%
FGFR3
  activity at 1 µM: 90.5%
GCK/MAP4K2; 1 μM
  Activity%: 96.82%
GCK/MAP4K2
  activity at 1 µM: 97.6%
HGK/MAP4K4; 1 μM
  Activity%: 82.64%
HGK/MAP4K4
  activity at 1 µM: 84.4%
Haspin; 1 μM
  Activity%: 94.31%
Haspin
  activity at 1 µM: 94.5%
JAK1; 1 μM
  Activity%: 99.20%
JAK1
  activity at 1 µM: 99.5%
LATS2; 1 μM
  Activity%: 93.96%
LATS2
  activity at 1 µM: 94.4%
MLCK2/MYLK2; 1 μM
  Activity%: 50.92%
MLCK2/MYLK2
  activity at 1 µM: 51.3%
MST3/STK24; 1 μM
  Activity%: 100.31%
MST3/STK24
  activity at 1 µM: 102%
MYLK3; 1 μM
  Activity%: 100.10%
MYLK3
  activity at 1 µM: 101%
NEK1; 1 μM
  Activity%: 95.75%
NEK1
  activity at 1 µM: 96%
P38g; 1 μM
  Activity%: 105.38%
P38g
  activity at 1 µM: 109%
PKCb1; 1 μM
  Activity%: 84.55%
PKCb1
  activity at 1 µM: 84.8%
PKCb2; 1 μM
  Activity%: 98.56%
PKCb2
  activity at 1 µM: 100%
PKCiota; 1 μM
  Activity%: 92.87%
PKCiota
  activity at 1 µM: 97%
PKCnu/PRKD3; 1 μM
  Activity%: 101.06%
PKCnu/PRKD3
  activity at 1 µM: 102%
RIPK3; 1 μM
  Activity%: 104.99%
RIPK3
  activity at 1 µM: 106%
RSK4; 1 μM
  Activity%: 103.68%
RSK4
  activity at 1 µM: 105%
SIK2; 1 μM
  Activity%: 94.58%
SIK2
  activity at 1 µM: 95.5%
SRPK1; 1 μM
  Activity%: 99.67%
SRPK1
  activity at 1 µM: 100%
TTBK1; 1 μM
  Activity%: 107.17%
TTBK1
  activity at 1 µM: 110%
TYRO3/SKY; 1 μM
  Activity%: 97.95%
TYRO3/SKY
  activity at 1 µM: 99.6%

Source: PMC6591251, “Discovery of potent necroptosis inhibitors targeting RIPK1 kinase activity for the treatment of inflammatory disorder and cancer metastasis” (Cell Death & Disease, 2019)
